Experimental data taken from ChEMBL document CHEMBL3822405, “Binding mode prediction of aplysiatoxin, a potent agonist of protein kinase C, through molecular simulation and structure-activity study on simplified analogs of the receptor-recognition domain” (Bioorg Med Chem, 2016).

The molecules below were run against Protein kinase C delta type (Mus musculus, UniProt P28867) (assay: Inhibition of [3H]PDBu binding to PKCdelta C1B domain in CD-1 mouse brain cytosol incubated for 30 mins).
Sequence of Protein kinase C delta type (P28867 whole entry, the tested form may be a part): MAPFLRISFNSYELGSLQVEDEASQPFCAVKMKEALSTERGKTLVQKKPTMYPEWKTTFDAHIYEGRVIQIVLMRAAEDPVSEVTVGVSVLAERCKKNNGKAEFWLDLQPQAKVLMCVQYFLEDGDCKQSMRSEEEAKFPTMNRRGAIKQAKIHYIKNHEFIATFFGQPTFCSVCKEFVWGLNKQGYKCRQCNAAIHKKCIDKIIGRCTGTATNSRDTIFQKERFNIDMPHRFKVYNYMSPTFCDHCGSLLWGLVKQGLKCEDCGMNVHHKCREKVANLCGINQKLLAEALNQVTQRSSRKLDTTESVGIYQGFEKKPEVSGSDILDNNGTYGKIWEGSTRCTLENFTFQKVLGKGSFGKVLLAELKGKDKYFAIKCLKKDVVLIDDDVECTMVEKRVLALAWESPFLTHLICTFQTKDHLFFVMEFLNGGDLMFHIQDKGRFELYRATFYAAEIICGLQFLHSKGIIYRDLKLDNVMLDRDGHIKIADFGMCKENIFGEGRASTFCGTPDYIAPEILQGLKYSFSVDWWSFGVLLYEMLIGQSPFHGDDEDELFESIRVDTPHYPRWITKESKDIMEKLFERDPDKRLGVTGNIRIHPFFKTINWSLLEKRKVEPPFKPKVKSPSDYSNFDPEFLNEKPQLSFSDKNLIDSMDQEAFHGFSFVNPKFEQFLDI
CCCCCCCCOC(=O)C[C@@H](OC(=O)CCCCCCC)[C@@H](C)O showed a Ki of 370 nM. With CCCCCCCCC[C@@H](OC(=O)CCCCCCC)[C@@H](C)O the Ki was over 20000 nM. For CCCCCCCCOC(=O)C[C@@H](OCCCCCCCC)[C@@H](C)O, the Ki was 2900 nM.
